Oligonucleotides are written 5' to 3', each unit as a sugar letter and its base; * is a phosphorothioate linkage, no mark a phosphodiester; rarer units and linkages stand in square brackets, end groups in braces. Plain capitals give the bases only. m = 2'-O-methyl; r = 2'-OH (RNA); f = 2'-fluoro
Key:
Ku-7-LG cells = assay: Cellular proliferation assay (CCK8) in Ku-7-LG cells; assay type: cell-based, human; conditions: 10 nM, 72 hours
Procedure: Ku-7-LG cells were transfected with the indicated saRNA at 10 nM for 3 days. […] The closer the luciferase value is to the control group, the lower the probability of off-target effects of saRNA is. Control and dsCon2 were blank transfection and double-stranded scramble RNA transfection, respectively. The value of the ordinate represents the mean±SD of two repeated treatments.
(§1) After the transfection, the number of viable cells was detected with a CCK8 kit, and plotted as the percentage of the blank control treatment group. […] A transfection sample without oligonucleotide served as a blank control. Non-specific duplex (dsCon) transfected sample served as a negative control. Data are presented as mean±SD of at least two independent experiments. The values below the dashed line indicate stronger growth inhibitory activity compared to duplex Rag1-40 without chemical modification.
(§2) Human bladder cancer cells Ku-7-LG (ATCC), J82 (ATCC) and T24 (ATCC) were cultured in McCoy medium (Gibco) comprising 10% calf serum (Sigma-Aldrich) and 1% penicillin/Streptomycin (Gibco). Cells were cultured at 37° C. under 5% CO2. Ku-7-LG, J82 and T24 cells were plated into 12-well plates at 10×10^4 cells per well, transfected with the small RNA at a concentration of 10 nM (unless otherwise specified) for three days, using RNAiMax (Invitrogen, Carlsbad, CA) according to the manufacturer's instructions. Two replicate wells were set for each treatment.
(§3) Cells were plated in a 96-well plate at 2˜4×10^3 cells/well, cultured overnight, and transfected with the oligonucleotide duplexes. Three days after transfection, CCK8 (Dojindo) was used to detect cellular proliferation following manufacturer's instructions. The experimental steps are briefly described as follows: 10 μL of CCK8 solution was added to each well, incubated at 37° C. for 1 hour, and then the absorbance at 450 nm was measured using a microplate reader.
(§4) It is known that p21 induction by saRNA is that a variety of tumor suppressor factors such as p21 protein suppress the proliferation of cancer cells. To evaluate the effect of chemically modified saRNAs on the function of cancer cells, cells (Ku-7-LG and T24) were transfected with 10 nM unmodified and modified saRNAs for 72 hours, and the cellular proliferation was determined by CCK8. […] Furthermore, there was a correlation between RNA activating activity (FIGS. 7A-7B) and suppression of cellular proliferation activity (FIGS. 8A-8B). Strong p21 activators are usually also strong cytostatics.

T24 cells = assay: Cellular proliferation assay (CCK8) in T24 cells, alone and combined with Mitomycin C or valrubicin; assay type: cell-based, human; conditions: T24 cells, 10 nM, 72 hours, CCK8
Source text: as §1
T24 cells were transfected with RAG1-40-31 at concentrations of 0.1, 0.5, 1, 5, 10, 25 and 50 nM for 24 hours, and then Mitomycin C was added at concentrations of 1, 10, 100, 1000 and 10000 nM. The combined treatment was carried out with concentrations in pairs. After treatment, the cellular proliferation was detected by CCK8 kit. FIGS. 16A-16B show the relative proliferation proportion of T24 cells after the combined treatment with chemically modified saRNA RAG1-40-31 and valrubicin. […] Control and DMSO are the blank transfection control and the solvent for dilution control, respectively.
T24 cells were transfected with RAG1-40-31 at concentrations of 0.1, 0.5, 1, 5, 10, 25 and 50 nM for 24 hours, and then valrubicin at concentrations of 1, 10, 100, 1000 and 10000 nM was added. The combined treatment was carried out with concentrations in pairs. After treatment, the cellular proliferation was detected by CCK8 kit.
as §2, §3, §4

INF-α = assay: PBMC cytokine release assay, INF-α (ELISA); conditions: 10 nM, 24 hours; for immunostimulatory activity (INF-α) compared with Rag1-40, in words: PBMC
Procedure: Cells were treated with the indicated duplexes at a final concentration of 10 nM or lipopolysaccharide (LPS) as a positive control for 24 hours, respectively. The levels of INF-α and TNF-α in the cell supernatant were detected by ELISA kit. […] Data represent mean±SD of two independent experiments.
Human peripheral blood mononuclear cells (Allcells, Alameda, CA) were seeded in a 96-well microplate at a density of approximately 10×10^4 cells/well. Transfection of dsRNA was performed using RNAiMAX (Invitrogen, Carlsbad, CA) following manufacturer's instructions. Supernatants were collected 24 hours after transfection and immediately assayed for IFN-α and TNF-α production using ELISA kit (R&D Systems). Each treatment group was analyzed in triplicate.
To assess the immunostimulatory effect of chemically modified saRNAs, human peripheral blood mononuclear cells (PBMC) from healthy donors were incubated with the double-stranded saRNAs, and INF-α and TNF-α levels in the supernatant of treated cells after 24 hours were measured.

RNase A = target: T1, RNase A (Bos taurus, UniProt P61823); assay: saRNA stability analysis in the presence of RNase A (agarose gel); conditions: incubation 0 to 96 hours
T1 sequence (P61823 27-150): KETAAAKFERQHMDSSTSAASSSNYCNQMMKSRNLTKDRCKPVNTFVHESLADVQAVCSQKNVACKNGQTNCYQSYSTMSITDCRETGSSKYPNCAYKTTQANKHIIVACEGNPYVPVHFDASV
Procedure: The duplexes obtained at each time point above were each added to 1 μL of 10× loading buffer, and then frozen in liquid nitrogen. After incubation, all samples were detected for the double-stranded RNA by 4% agarose gel electrophoresis, and the content of each duplex was analyzed by Image J software.
The duplexes obtained at each time point indicated above were each added to 1 μL of 10× loading buffer, and then frozen in liquid nitrogen. After incubation, all samples were detected for the double-stranded RNA by 4% agarose gel electrophoresis, and the content of each duplex was analyzed by Image J software.
saRNA (1.5 μL, 10 μM) was incubated at a final concentration of 0.02 mg/mL in PBS in the presence of RNase A (Amresco, OH, USA) at 37° C. for different durations. At the end of the incubation, the mixture was snap frozen in liquid nitrogen to stop nuclease activity. Samples were analyzed on a 4% agarose gel and examined for duplex degradation.
All chemically modified duplexes (Rag1-40-1 to Rag1-40-32) were incubated with 0.02 μg/L of RNase A for different durations (0 to 96 hours). At the end of the incubation, the size and amount of duplexes were detected by agarose gel electrophoresis.

[1] = tested on: Rag1-40 target sequence in the 3′ UTR of firefly luciferase, COS-1 cells; assay: Analysis of off-target effects (pOff-Target dual luciferase reporter in COS-1 cells); conditions: lysed 48 hours after transfection, luciferase activity
Procedure: A 26 bp fragment comprising the target site of Rag1-40 was cloned in the antisense orientation into the 3′ UTR region of the firefly luciferase gene in a pmirGLO dual luciferase vector. Vector plasmids were co-transfected with the indicated saRNAs into COS-1 cells. Cells were lysed 48 hours after transfection, and the resulting lysates were assessed for luciferase activity. Data represent mean±SD of at least two independent experiments. Dashed line represents comparisons to blank control (top dashed line) and Rag1-40 (bottom dashed line). Values close to the top dashed line indicate no off-target effect.
A 26 bp fragment comprising the Rag1-40 target sequence was cloned in the antisense orientation into a multiple cloning site (MCS) of the 3′ untranslated region of firefly luciferase of the pmirGLO dual luciferase vector (Promega, Fitchburg, WI), to obtain pOff-Target plasmid. Following E. coli transformation and overnight incubation, plasmids for each construct were prepared by standard method. Each plasmid was transfected into COS-1 monkey kidney epithelial cells using Lipofectamine 3000 (Invitrogen, Carlsbad, CA). Subsequently, saRNA was transfected using RNAiMAX. After 24 hours of incubation, COS-1 cells were lysed with 1× lysis buffer, and luciferase activity was measured using dual luciferase reporter gene assay system (Promega, WI, USA) following manufacturer's instructions.
To assess the off-target effects of unmodified and modified saRNAs, a sequence complementary to the sense oligonucleotide strand of Rag1-40 was cloned into the 3′UTR region of the luciferase gene in a pmirGLO dual luciferase vector. The vector plasmid was co-transfected with the saRNA into COS-1 cells. Cells were lysed 48 hours after transfection and the resulting lysates were assessed for luciferase activity.

Substance	suppression of cellular proliferation, in words (Ku-7-LG cells)	suppression of cellular proliferation, in words (T24 cells)	immunostimulatory activity (INF-α) compared with Rag1-40, in words (INF-α)	degradation of duplex at 96 hours (RNase A)	off-target effect compared to unmodified Rag1-40, in words [1]	protein level of INF-α (INF-α; PBMC supernatant)
Rag1-40-27: saRNA duplex: sense fCfCAACUCAUUCUCCAAG*U*C (SEQ ID NO 16); antisense fUmAfCfUfUmGmGmAmGmAmAfUmGmAmGfUfUmGmGfCmA (SEQ ID NO 8) (sense fCfCrArArCrUrCrArUrUrCrUrCrCrArArG*rU*rC)	negatively affects proliferation suppression activity	negatively affects proliferation suppression activity	reduced immunostimulatory activity	little or no signs of degradation	completely inhibited	
Rag1-40-13: saRNA duplex: sense fCfCAACUCAUUCUCCAAGfUfC (SEQ ID NO 14); antisense UACUfUGGAGAAfUGAGUfUGG*fC*A (SEQ ID NO 10) (sense CCAACUCAUUCUCCAAGUC; antisense UACUUGGAGAAUGAGUUGGCA; 2'-F modifications, phosphorothioates; modified_base (1)..(19) (1,2,18,19)=2′-fluoro; modified_base (5)..(20) (5,12,17,20)=2′-fluoro; modified_base (19)..(21) (19,20,21)=phosphorothioate (PS) backbone modification)			reduced immunostimulatory activity		mitigated or similar off-target effects	
Rag1-40-24: saRNA duplex: sense mCmCAACUCAUUCUCCAAG*U*C (SEQ ID NO 15); antisense fUactfUGGAGAAfUGAGfUfUGG*fC*A (SEQ ID NO 13) (sense CCAACUCAUUCUCCAAGUC; antisense UACTUGGAGAAUGAGUUGGCA; 2'-OMe, 2'-F, phosphorothioates, DNA residues; modified_base (1)..(2) (1,2)=2′-O-methyl(2′-OMe); modified_base (17)..(19) (17,18,19)=phosphorothioate (PS) backbone modification; modified_base (1)..(17) (1,2,9,13,14,17)=2′-fluoro; (1)..(21) (1,5,6,7,8,9,10,11,12,13,14,15,1,61,7,18,19,20, 21)=RNA; (2)..(4) (2,3,4)=DNA; modified_base (16)..(18) (16,17,18)=phosphorothioate (PS) backbone modification)	weakens the activity of the saRNA duplex to suppress cellular proliferation	weakens the activity of the saRNA duplex to suppress cellular proliferation		little or no signs of degradation	completely inhibited	
RAG1-IS-1: RNA duplex known to have strong immunostimulatory activity, positive control: S GUCAUCACACUGAAUACCAAU (SEQ ID NO 20), AS AUUGGUAUUCAGUGUGAUGACAC (SEQ ID NO 21) (listed as RNA, chemistry not given here) [reference compound]						708 pg/mL
Rag1-40-15: saRNA duplex: sense fCfCAACUCAUUCUCCAAGfUfC (SEQ ID NO 14); antisense U*A*fCfUfUGGAGAAfUGAGfUfUGG*fC*A (SEQ ID NO 12) (sense CCAACUCAUUCUCCAAGUC; antisense UACUUGGAGAAUGAGUUGGCA; 2'-F modifications, phosphorothioates; modified_base (1)..(19) (1,2,18,19)=2′-fluoro; modified_base (2)..(21) (2,3,19,20,21)=phosphorothioate (PS) backbone modification; modified_base (3)..(20) (3,4,5,12,16,17,20)=2′-fluoro)			reduced immunostimulatory activity	little or no signs of degradation	mitigated or similar off-target effects	
Rag1-40-8: saRNA duplex: sense mCmCAACUCAUUCUCCAAGmUmC (SEQ ID NO 5); antisense fUactfUGGAGAAfUGAGfUfUGG*fC*A (SEQ ID NO 13) (sense CCAACUCAUUCUCCAAGUC; antisense UACTUGGAGAAUGAGUUGGCA; 2'-OMe, 2'-F, phosphorothioates, DNA residues; modified_base (1)..(19) (1,2,18,19)=2′-O-methyl(2′-OMe); modified_base (1)..(17) (1,2,9,13,14,17)=2′-fluoro; (1)..(21) (1,5,6,7,8,9,10,11,12,13,14,15,1,61,7,18,19,20, 21)=RNA; (2)..(4) (2,3,4)=DNA; modified_base (16)..(18) (16,17,18)=phosphorothioate (PS) backbone modification)	weakens the activity of the saRNA duplex to suppress cellular proliferation	weakens the activity of the saRNA duplex to suppress cellular proliferation	reduced immunostimulatory activity	little or no signs of degradation	mitigated or similar off-target effects	
Rag1-40-5: saRNA duplex: sense mCmCAACUCAUUCUCCAAGmUmC (SEQ ID NO 5); antisense UACUfUGGAGAAfUGAGUfUGG*fC*A (SEQ ID NO 10) (sense CCAACUCAUUCUCCAAGUC; antisense UACUUGGAGAAUGAGUUGGCA; 2'-OMe, 2'-F, phosphorothioates; modified_base (1)..(19) (1,2,18,19)=2′-O-methyl(2′-OMe); modified_base (5)..(20) (5,12,17,20)=2′-fluoro; modified_base (19)..(21) (19,20,21)=phosphorothioate (PS) backbone modification)			reduced immunostimulatory activity		completely inhibited	
Rag1-40-9: saRNA duplex: sense fCfCAACUCAUUCUCCAAGfUfC (SEQ ID NO 14); antisense fUAfCfUfUGGAGAAfUGAGfUfUGGfCA (SEQ ID NO 6) (sense CCAACUCAUUCUCCAAGUC; antisense UACUUGGAGAAUGAGUUGGCA; 2'-F modifications; modified_base (1)..(19) (1,2,18,19)=2′-fluoro; modified_base (1)..(20) (1,3,4,5,12,16,17,20)=2′-fluoro)			reduced immunostimulatory activity	little or no signs of degradation	mitigated or similar off-target effects	
